This assay has as its system HCV replication (HCV replicon RNA in Huh7/Clone A cells). As to the kind of experiment: HCV Replicon Assay. Conditions: Hepatitis C virus, read-out: IC50 for inhibition of HCV replication. The assay is classed as cell-based. From the text:
The HCV replicon assay is a cell-culture system that mimics in vivo HCV replication and provides a system to study HCV replication in vitro. It was created by transfecting cloned viral RNA derived from a consensus HCV genomic sequence into human Huh7 hepatoma cells that are semi-permissive for viral RNA production (Lohmann V., Korner F., Koch J.-O., Herian U., Theilmann L. and Bartenschlager R. (1999). Replication of subgenomic Hepatitis C virus RNAs in a hepatoma cell line. Science 285, 110-113 and Blight K. J., Kolykhalov A. A. and Rice C. M. (2000). Efficient initiation of HCV RNA Replication in cell culture. Science 290, […]). These transfected cell lines contain a subgenomic HCV RNA genome that includes (1) the HCV 5′NTR fused to 12 amino acids of the capsid coding region, (2) the neomycin phosphotransferase gene (Neo) as a selectable marker, (3) the internal ribosome entry site (IRES) from encephalomyocarditis virus (EMCV) that directs translation of HCV non-structural proteins (variously NS2 or NS3 to NS5B), and (4) the 3′ NTR. Replicon-containing cells autonomously and persistently replicate HCV RNA that can be measured quantitatively by real-time qPCR. Therefore, the replicon system facilitates quantitative assessment of anti-viral activity by monitoring changes in HCV RNA replication in a cell-based assay.
HCV replicon-containing cells (Huh7/Clone A) were routinely maintained in Clone A growth medium (DMEM medium [Invitrogen], supplemented with 10% Fetal Bovine Serum, 1% Non Essential Amino Acids and 1 g/L G418). Test compounds were dissolved in dimethyl sulfoxide (DMSO) to make 200× stock solutions for all doses prior to treatment.
For the HCV replicon assay, Huh7/Clone A cells were trypsinized from culture flasks, seeded in 1 ml of Clone A growth medium without G418 at 4×10^4 cells per well in 24-well plates and incubated at 37° C. in a humidified CO2 (5%) incubator overnight. Following overnight incubation, compound solutions were added into wells in the same volume (5 μl of 200× compound stock per well) to give a final DMSO concentration of 0.5%. Three wells on each plate supplemented with 5 μl of DMSO served as untreated controls. For IC50 determinations, compounds were tested at 7 serial dilutions in triplicates from the starting stock solutions. The plates were incubated at 37° C. for 48 hours. After incubation, cells were harvested, transferred to 96-well plates, and subjected to total RNA extraction using the RNA Isolation Kit (RNeasy 96, Qiagen) according to the protocol described by the manufacture's RNeasy 96 Handbook (Qiagen).
Total RNA eluted in 130 μl of RNase-free dH2O was quantitated by the RiboGreen Assay according to the supplier's protocol (Molecular Probe). Briefly, 5 μl of RNA samples were aliquoted in duplicate to a 96-well black microplate and a 96-well TaqMan Optical plate. RNA samples in the black microplate were mixed with 95 μl of diluted RiboGreen:reagent (1:250 dilution in TE buffer) and sample fluorescence was measured using a fluorescence microplate reader at standard fluorescein wavelengths (excitation ˜480 nm, emission ˜520 nm). Ribosomal RNA (Molecular Probe) was used as standard.
TaqMan quantitative PCR (RT-qPCR) was used to quantitate the amount of HCV replicon RNA in each sample. The RT-qPCR reactions were performed in 25 μl on an ABI PRISM 7900 HT Sequence Detection System (Applied Biosystems). The reaction mixture contained 5 μl of total RNA (10-100 ng), 1×TaqMan Buffer A (Applied Biosystems), 5.5 mM MgCl2, 1.2 mM dNTP mix, 0.625 U of AmpliTaq Gold (Applied Biosystems), 5 U of MMLV reverse transcriptase (Promega), 5 U of rRNasin (Promega), 300 nM each of the forward and reverse primers, and 100 nM TaqMan MGB probe. […]
Background: In antiviral work, replicon cells carry a viral genome segment that copies itself.

Where [1] appears, read: Huh-7, HCV replicon-containing Huh7/Clone A cells, 48 hours incubation, replicon RNA by RT-qPCR normalized to total RNA.

Where two headings read alike, the source gives them in different places.

By IC50 is commonly meant the concentration that inhibits the measured activity by half. As to `CC(C)(C)NC(=O)N[C@H](C(=O)N1CC(Oc2ccc(Cl)cn2)C[C@H]1C(=O)N[C@@H](CC1CCC1)C(=O)C(=O)NC1CC1)C(C)(C)C` (stereo partly drawn) [Compound 3, 1-[2S-(3-tert-butylureido)-3,3-dimethylbutyryl]-4R-(5-chloropyridin-2-yloxy)-pyrrolidine-2S-carboxylic acid (1S-cyclobutylmethyl-2-cyclopropylcarbamoyl-2-oxoethyl)-amide], the half-maximal inhibitory concentration (IC50) (Huh-7, 48 h) is under 50 µM.
Still for that read-out and setting: the figure for `CCC[C@H](NC(=O)[C@@H]1C[C@@H](Oc2ccc(Cl)cn2)CN1C(=O)[C@@H](NC(=O)OC(C)(C)C)C(C)(C)C)C(=O)C(=O)NC1CC1` [Compound 6, {1S-[4R-(5-chloropyridin-2-yloxy)-2S-(1S-cyclopropylaminooxalylbutyl-carbamoyl)-pyrrolidine-1-carbonyl]-2,2-dimethyl-propyl}-carbamic acid tent-butyl ester] is under 50 µM.
Same read-out and setting: next, `CC(C)(C)OC(=O)N[C@H](C(=O)N1C[C@H](Oc2ccc(Cl)cn2)C[C@H]1C(=O)N[C@@H](CC1CCC1)C(=O)C(=O)NC1CC1)C(C)(C)C` [Compound 7, {1S-[4R-(5-chloropyridin-2-yloxy)-2S-(1S-cyclobutylmethyl-2-cyclopropylcarbamoyl-2-oxo-ethylcarbamoyl)-pyrrolidine-1-carbonyl]-2,2-dimethyl-propyl}-carbamic acid tert-butyl ester]: under 50 µM.
Take `CCC[C@H](NC(=O)[C@@H]1C[C@@H](Oc2ccc(Cl)cn2)CN1C(=O)[C@@H](NC(=O)NC(C)(C)C)C(C)(C)C)C(=O)C(=O)NC1CC1` [Compound 8, 1-[2-(3-tert-butylureido)-3,3-dimethyl-butyryl]-4-(5-chloro-pyridin-2-yloxy)-pyrrolidine-2-carboxylic acid (1-cyclopropylaminooxalyl-butyl)-amide]: the IC50 under setting [1] was under 10 µM.
On to `COc1ccc2c(OC3C[C@@H](C(=O)N[C@@H](CC4CC4)C(=O)C(=O)NC4CC4)N(C(=O)[C@@H](NC(=O)NC(C)(C)C)C(C)(C)C)C3)nccc2c1` (stereo partly drawn) [Compound 10, 1-[2S-(3-tert-Butyl-ureido)-3,3-dimethyl-butyryl]-4R-(6-methoxy-isoquinolin-1-yloxy)-pyrrolidine-2S-carboxylic acid (2-cyclopropylcarbamoyl-1S-cyclopropylmethyl-2-oxo-ethyl)-amide], for which the IC50 under setting [1] is under 10 µM.
Still for that read-out and setting: next, `CCOc1ccc2c(OC3C[C@@H](C(=O)N[C@@H](CC4CC4)C(=O)C(=O)NC4CC4)N(C(=O)[C@@H](NC(=O)NC(C)(C)C)C(C)(C)C)C3)nccc2c1` (stereo partly drawn) [Compound 11, 1-[2S-(3-tert-Butyl-ureido)-3,3-dimethyl-butyryl]-4R-(6-ethoxy-isoquinolin-1-yloxy)-pyrrolidine-2-carboxylic acid (2-cyclopropylcarbamoyl-1S-cyclopropylmethyl-2S-oxo-ethyl)-amide]: under 10 µM.
Still for that read-out and setting: the figure for `CCC[C@H](NC(=O)[C@@H]1CC(Oc2nccc3cc(OCC)ccc23)CN1C(=O)[C@@H](NC(=O)NC(C)(C)C)C(C)(C)C)C(=O)C(=O)NC1CC1` (stereo partly drawn) [Compound 12, 1-[2S-(3-tert-Butyl-ureido)-3,3-dimethyl-butyryl]-4R-(6-ethoxy-isoquinolin-1-yloxy)-pyrrolidine-2S-carboxylic acid (1S-cyclopropylaminooxalyl-butyl)-amide] is under 10 µM.
As for `CCCC[C@H](NC(=O)[C@@H]1CC(Oc2nccc3cc(OC)ccc23)CN1C(=O)[C@@H](NC(=O)NC(C)(C)C)C(C)(C)C)C(=O)C(=O)NC1CC1` (stereo partly drawn) [Compound 13, 1-[2S-(3-tert-Butyl-ureido)-3,3-dimethyl-butyryl]-4R-(6-methoxy-isoquinolin-1-yloxy)-pyrrolidine-2S-carboxylic acid (1S-cyclopropylaminooxalyl-pentyl)-amide], under setting [1], the IC50 is under 10 µM.

The values are drawn from patent US8518874B2, “HCV inhibitors” (Virobay, Inc., priority 2005, dated 2013).
